Source: US8637536B2, “Pyrimidinone compounds for use in the treatment of diseases or conditions mediated by Lp-PLA2” (Glaxo Group Limited, priority 2010, dated 2014)
Counter-ions that a name gives are not always drawn.

Molecular target: T1, Lp-PLA2 from plasma (pooled human plasma) (Homo sapiens, UniProt Q13093)
T1 construct: 8 μL pooled human plasma; from tissue; host or cells: pooled human plasma
T1 sequence (Q13093 22-441): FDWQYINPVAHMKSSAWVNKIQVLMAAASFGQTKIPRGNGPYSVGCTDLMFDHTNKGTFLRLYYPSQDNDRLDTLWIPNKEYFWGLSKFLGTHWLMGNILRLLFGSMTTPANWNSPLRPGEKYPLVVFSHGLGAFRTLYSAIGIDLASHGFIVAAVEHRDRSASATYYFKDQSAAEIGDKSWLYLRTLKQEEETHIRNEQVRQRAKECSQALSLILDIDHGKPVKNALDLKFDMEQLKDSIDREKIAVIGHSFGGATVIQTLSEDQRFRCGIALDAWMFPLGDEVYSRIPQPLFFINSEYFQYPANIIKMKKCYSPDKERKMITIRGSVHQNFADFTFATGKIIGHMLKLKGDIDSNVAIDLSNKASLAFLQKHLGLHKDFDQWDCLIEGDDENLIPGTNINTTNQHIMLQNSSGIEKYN
Experiment: Lp-PLA2 human plasma assay (Thio-PAF assay)
Format: biochemical
Conditions: text thresholds, read-out: pIC50 values in the thio-PAF assay (converted)
From the text: (3) Lipoprotein-Associated Phospholipase A2 (Lp-PLA2) Human Plasma Assay (Also Referred to as “Thio-PAF Assay”)
The human plasma assay utilizes a thioester analog of PAF (phosphatidylcholine), where hydrolysis yields to the formation of a phospholipid containing a free thiol group. The amount of thiol is quantitated continuously by reacting with CPM (7-diethylamino-3-(4′-maleimidylphenyl)-4-methylcoumarin), a maleimide which increases in fluoresence after Michael addition of thiols. This assay may detect the activity of Lp-PLA2 from plasma, as determined by specific inhibition by Lp-PLA2 inhibitors.
The thio-PAF assay was run as a quenched 15 μL assay. Compounds source plate was prepared by making 1:3 (by volume) serial dilution of the compounds into pure DMSO on 384-well microplate. 0.01 μL of compounds on compound source plate were transferred to 384 well Greiner 784076 (black) low-volume plates by ECHO liquid dispenser. 8 μL pooled human plasma, which was previously aliquoted and frozen, was added. Plates were centrifuged for 10 sec at 500 rpm. After 30 minutes preincubation, 2 μL of substrate (2.5 mM thio-PAF, 3.2 mM NEM (N-ethylmaleimide) [made fresh daily in DMSO], and 32 μM CPM [from a DMSO stock] in assay buffer of 50 mM HEPES, pH7.4, 150 mM NaCl, 1 mM CHAPS was added to 384 well Greiner 784076 (black) low-volume plates by BRAVO liquid handling station. Plates were centrifuged for 10 sec at 500 rpm. Plate was covered to protect from light and incubated for 2 min at room temperature. Reaction was quenched with 5 μL of 5% aqueous trifluoroacetic acid (TFA). Plates were covered to protect from light and incubated for 40 min at room temperature. Plates were read at ex: 380/em: 485 using-Envision microplate reader. PIC50 data, curve and QC analysis was conducted by using XLFit module in Excel.

SMILES | IC50
COc1ncc(Cc2cn(C)c(CCc3ccc(Oc4ccc(Cl)c(C(F)(F)F)c4)cc3)nc2=O)cn1 [E3, 2-[2-(4-{[4-Chloro-3-(trifluoromethyl)phenyl]oxy}phenyl)ethyl]-1-methyl-5-{[2-(methyloxy)-5-pyrimidinyl]methyl}-4(1H)-pyrimidinone] | ≤ 1000 nM
Cn1cc(Cc2cncnc2)c(=O)nc1CCc1ccc(Oc2ccc(Cl)c(C(F)(F)F)c2)cc1 [E4, 2-[2-(4-{[4-Chloro-3-(trifluoromethyl)phenyl]oxy}phenyl)ethyl]-1-methyl-5-(5-pyrimidinylmethyl)-4(1H)-pyrimidinone] | ≤ 1000 nM
COc1ncc(Cc2c[nH]c(NCCc3ccc(Oc4ccc(Cl)c(C(F)(F)F)c4)cc3)nc2=O)cn1 [E9, 2-{[2-(4-{[4-Chloro-3-(trifluoromethyl)phenyl]oxy}phenyl)ethyl]amino}-5-{[2-(methyloxy)-5-pyrimidinyl]methyl}-4(1H)-pyrimidinone] | ≤ 100 nM
N#Cc1cc(CSc2nc(=O)c(Cc3cncnc3)c[nH]2)ccc1Oc1ccc(C(F)(F)F)cn1 [E73, 5-({[4-oxo-5-(5-pyrimidinylmethyl)-1,4-dihydro-2-pyrimidinyl]thiol}methyl)-2-{[5-(trifluoromethyl)-2-pyridinyl]oxy}benzonitrile] | ≤ 100 nM
Cn1cc(Cc2cncnc2)c(=O)nc1SCc1ccc(Oc2ccc(Cl)c(C(F)(F)F)c2)c(C#N)c1 [E79, 2-{[4-chloro-3-(trifluoromethyl)phenyl]oxy}-5-({[1-methyl-4-oxo-5-(5-pyrimidinylmethyl)-1,4-dihydro-2-pyrimidinyl]thio}methyl)benzonitrile] | ≤ 100 nM
Cn1cc(Cc2cncnc2)c(=O)nc1SCc1ccc(Oc2ccc(F)c(C(F)(F)F)c2)c(C#N)c1 [E88, 2-{[4-fluoro-3-(trifluoromethyl)phenyl]oxy}-5-({[1-methyl-4-oxo-5-(5-pyrimidinylmethyl)-1,4-dihydro-2-pyrimidinyl]thio}methyl)benzonitrile] | ≤ 100 nM
Cn1cc(Cc2cn(C)c(SCCc3ccc(Oc4cccc(C(F)(F)F)c4)c(C#N)c3)nc2=O)cn1 [E92, 5-[2-({1-methyl-5-[(1-methyl-1H-pyrazol-4-yl)methyl]-4-oxo-1,4-dihydro-2-pyrimidinyl}thio)ethyl]-2-{[3-(trifluoromethyl)phenyl]oxy}benzonitrile, trifluoroacetic acid salt] | ≤ 100 nM
Cn1cc(Cc2cncnc2)c(=O)nc1SCc1ccc(Oc2ccc(C(F)(F)F)cn2)c(C#N)c1 [E105, 5-({[1-methyl-4-oxo-5-(5-pyrimidinylmethyl)-1,4-dihydro-2-pyrimidinyl]thio}methyl)-2-{[5-(trifluoromethyl)-2-pyridinyl]oxy}benzonitrile] | ≤ 100 nM
Cn1cc(Cc2cn(C)c(SCCc3ccc(Oc4ccc(Cl)c(C(F)(F)F)c4)cc3)nc2=O)cn1 [E113, 2-{[2-(4-{[4-chloro-3-(trifluoromethyl)phenyl]oxy}phenyl)ethyl]thio}-1-methyl-5-[(1-methyl-1H-pyrazol-4-yl)methyl]-4(1H)-pyrimidinone] | ≤ 100 nM
O=c1nc(OCCc2ccc(Oc3ccc(Cl)c(C(F)(F)F)c3)cc2)[nH]cc1Cc1cnc(C(F)(F)F)nc1 [E126, 2-{[2-(4-{[4-chloro-3-(trifluoromethyl)phenyl]oxy}phenyl)ethyl]oxy}-5-{[2-(trifluoromethyl)-5-pyrimidinyl]methyl}-4(1H)-pyrimidinone] | ≤ 1000 nM
COc1ncc(Cc2c[nH]c(OCCc3ccc(Oc4ccc(C)c(F)c4)cc3)nc2=O)cn1 [E157, 2-[(2-{4-[(3-fluoro-4-methylphenyl)oxy]phenyl}ethyl)oxy]-5-{[2-(methyloxy)-5-pyrimidinyl]methyl}-4(1H)-pyrimidinone] | ≤ 1000 nM
COc1ncc(Cc2c[nH]c(OCCc3ccc(Oc4cc(Cl)cc(C(F)(F)F)c4)cc3)nc2=O)cn1 [E165, 2-{[2-(4-{[3-chloro-5-(trifluoromethyl)phenyl]oxy}phenyl)ethyl]oxy}-5-{[2-(methyloxy)-5-pyrimidinyl]methyl}-4(1H)-pyrimidinone] | ≤ 100 nM
COc1ncc(Cc2c[nH]c(OCCc3ccc(Oc4cnc(C(F)(F)F)nc4)c(F)c3)nc2=O)cn1 [E167, 2-(3-fluoro-4-((2-(trifluoromethyl)pyrimidin-5-yl)oxy)phenethoxy)-5-((2-methoxypyrimidin-5-yl)methyl)pyrimidin-4(1H)-one] | ≤ 100 nM
O=c1nc(OCCc2cc(F)c(Oc3cnc(C(F)(F)F)nc3)c(F)c2)[nH]cc1Cc1cncnc1 [E168] | ≤ 100 nM
COc1ncc(Cc2c[nH]c(OCCc3cc(F)c(Oc4cnc(C(F)(F)F)nc4)c(F)c3)nc2=O)cn1 [E169, 2-(3,5-difluoro-4-((2-(trifluoromethyl)pyrimidin-5-yl)oxy)phenethoxy)-5-((2-methoxypyrimidin-5-yl)methyl)pyrimidin-4(1H)-one] | ≤ 100 nM
CCc1cn(C)c(OCCc2ccc(Oc3ccc(Cl)c(C(F)(F)F)c3)c(F)c2)nc1=O [E174, 2-{[2-(4-{[4-chloro-3-(trifluoromethyl)phenyl]oxy}-3-fluorophenyl)ethyl]oxy}-5-ethyl-1-methyl-4(1H)-pyrimidinone] | ≤ 100 nM
CCc1cn(C)c(OCCc2cc(F)c(Oc3ccc(Cl)c(C(F)(F)F)c3)c(F)c2)nc1=O [E175, 2-{[2-(4-{[4-chloro-3-(trifluoromethyl)phenyl]oxy}-3,5-difluorophenyl)ethyl]oxy}-5-ethyl-1-methyl-4(1H)-pyrimidinone] | ≤ 100 nM
COc1ncc(Cc2c[nH]c(OCCc3cc(F)c(Oc4ccc(Cl)c(C(F)(F)F)c4)c(F)c3)nc2=O)cn1 [E176, 2-{[2-(4-{[4-chloro-3-(trifluoromethyl)phenyl]oxy}-3,5-difluorophenyl)ethyl]oxy}-5-{[2-(methyloxy)-5-pyrimidinyl]methyl}-4(1H)-pyrimidinone] | ≤ 100 nM
O=c1nc(OCCc2ccc(Oc3ccc(Cl)c(OC(F)(F)F)c3)cc2)[nH]cc1Cc1cncnc1 [E177, 2-(4-(4-chloro-3-(trifluoromethoxy)phenoxy)phenethoxy)-5-(pyrimidin-5-ylmethyl)pyrimidin-4(1H)-one] | ≤ 100 nM
COc1ncc(Cc2c[nH]c(OCCc3ccc(Oc4ccc(Cl)c(OC(F)(F)F)c4)cc3)nc2=O)cn1 [E178, 2-(4-(4-chloro-3-(trifluoromethoxy)phenoxy)phenethoxy)-5-((2-methoxypyrimidin-5-yl)methyl)pyrimidin-4(1H)-one] | ≤ 100 nM
O=c1nc(NCCc2ccc(Oc3cccc(C(F)(F)F)c3)cc2)[nH]cc1Cc1cncnc1 [E185, 5-Pyrimidin-5-ylmethyl-2-{2-[4-(3-trifluoromethyl-phenoxy)-phenyl]-ethylamino}-1H-pyrimidin-4-one] | ≤ 1000 nM
COc1ncc(Cc2c[nH]c(NCCc3ccc(Oc4ccc(C(F)(F)F)cn4)cc3)nc2=O)cn1 [E186, 5-(2-methoxy-pyrimidin-5-ylmethyl)-2-{2-[4-(5-trifluoromethyl-pyridin-2-yloxy)phenyl]-ethylamino}-1H-pyrimidin-4-one] | ≤ 1000 nM
CN(CCc1ccc(Oc2cccc(C(F)(F)F)c2)cc1)c1nc(=O)c(Cc2cncnc2)c[nH]1 [E187, 2-(Methyl-{2-[4-(3-trifluoromethyl-phenoxy)-phenyl]-ethyl}-amino)-5-pyrimidin-5-ylmethyl-1H-pyrimidin-4-one] | ≤ 1000 nM
COc1ncc(Cc2c[nH]c(NCCc3ccc(Oc4cccc(C(F)(F)F)c4)cc3)nc2=O)cn1 [E193, 5-(2-methoxy-pyrimidin-5-ylmethyl)-2-{2-[4-(3-trifluoromethyl-phenoxy)phenyl]-ethylamino}-1H-pyrimidin-4-one] | ≤ 1000 nM
O=c1nc(NCCc2ccc(Oc3ccc(Cl)cc3)cc2)[nH]cc1Cc1cncnc1 [E194, 2-{2-[4-(4-Chloro-phenoxy)-phenyl]-ethylamino}-5-pyrimidin-5-ylmethyl-1H-pyrimidin-4-one] | ≤ 1000 nM
Cc1ncc(Cc2c[nH]c(NCCc3ccc(Oc4ccc(C(F)(F)F)cn4)c(C#N)c3)nc2=O)cn1 [E203, 5-{2-[5-(2-Methyl-pyrimidin-5-ylmethyl)-4-oxo-1,4-dihydro-pyrimidin-2-ylamino]-ethyl}-2-(5-trifluoromethyl-pyridin-2-yloxy)-benzonitrile] | ≤ 100 nM
Cc1ncc(Cc2c[nH]c(NCCc3ccc(Oc4ccc(C(F)(F)F)c(Cl)c4)cc3)nc2=O)cn1 [E207, 2-{2-[4-(3-chloro-4-trifluoromethyl-phenoxy)-phenyl]ethylamino}-5-(2-methyl-pyrimidin-5-ylmethyl)-1H-pyrimidin-4-one] | ≤ 1000 nM
